US12527753B2, “Cysteamine for the treatment, mitigation and prevention of coronaviral, e.g., SARS-CoV-2, infections” (The Regents of the University of Michigan, priority 2020, dated 2026)
Where a name gives a salt, the structure may show the parent alone. Read-outs that look alike come from different tables or passages of the source.

Key:
Assay in all cases: Virus pre-incubation, plaque formation in TMPRSS cells
Assay type in all cases: cell-based
[1] = tested on: SARS-CoV-2 variant gamma; conditions: Severe acute respiratory syndrome coronavirus 2, 2 h; 5 mM, 120 min incubation
[2] = tested on: SARS-CoV-2 variant beta; conditions: Severe acute respiratory syndrome coronavirus 2, 2 h; 5 mM, 120 min incubation
[3] = tested on: SARS-CoV-2 variant alpha; conditions: Severe acute respiratory syndrome coronavirus 2, 2 h; 5 mM, 120 min incubation
[4] = tested on: SARS-CoV-2 Delta variant; conditions: 10 mM; for inhibition at 10000 µM: read-out: inhibition / inactivation

Molecule	inhibition at 5000 µM [1]	inhibition at 5000 µM [2]	inhibition at 5000 µM [3]	inhibition at 10000 µM ([4]; Severe acute respiratory syndrome coronavirus 2, 2 h, 120 min incubation)	inhibition at 10000 µM ([4]; Severe acute respiratory syndrome coronavirus 2, 15 min incubation, sustained through 90 minutes)	inhibition / inactivation ([4]; 15 min incubation, sustained through 90 minutes)	inhibition / inactivation ([4]; 120 min incubation)
NCCS [cysteamine HCl]	85 to 95%	85 to 95%	85 to 95%	100%	85%		
2-aminoethanethiol [cysteamine]						85%	100%
